Reference: patent US8287862B2, “Multidrug resistance-associated polypeptide” (Millennium Pharmaceuticals, Inc., priority 1997, dated 2012)

What was measured:
[1] = test system: MCF-7 human breast adenocarcinoma cell line; conditions: adriamycin-selected MDR MCF-7 vs parental MCF-7; cited from earlier work
MRP-β host cells = conditions: versus source or control cells; 16-24 hours in culture
Procedure: To establish this survival advantage, triplicate cultures of MRP-β host cells, control cells and source cells (e.g., MCF-7 human breast adenocarcinoma cells) are generated in 24-well cell culture plates. Once the cultures have attained at least 80% confluency, lethal or sub-lethal amounts of a cytotoxin (e.g., adriamycin, bisantrene) are added to each well. After a sufficient period of time for cytotoxic effects to be manifested (e.g., 16-24 hours in culture), culture media comprising the cytotoxic drug are aspirated or otherwise removed, and cells are stained with a vital dye such as Trypan blue. Which commercially available vital dye is used in this procedure is a matter of choice; thus, sulforodoamine B (see Powell et al. (1990), U.S. Pat. No. 5,550,149) could be used in lieu of Trypan blue. The number of cells that remain viable (e.g., capable of excluding the dye) are counted using a hemocytometer, flow cytometer or other appropriate device.

Structure (SMILES) | resistance of MDR derivative cell line relative to parental (wild-type) MCF-7 [1] | survival of MRP-β expressing host cells on exposure to cytotoxin (MRP-β host cells)
COc1cccc2c1C(=O)c1c(O)c3c(c(O)c1C2=O)C[C@@](O)(C(=O)CO)C[C@@H]3O[C@H]1C[C@H](N)[C@H](O)[C@H](C)O1 [adriamycin] | 192 fold | 
C(=N\NC1=NCCN1)/c1c2ccccc2c(/C=N/NC2=NCCN2)c2ccccc12 [bisantrene] |  | surviving exposure to otherwise lethal amounts
